Results as given in patent publication US20150025017A1, “COMPOSITIONS AND METHODS FOR TREATING CANCER” (Fred Hutchinson Cancer Research Center, priority 2012, published 2015).

Columns and labels:
Cells expressing Ras = experiment: sensitivity of Ras-expressing cells to drugs with reported splicing inhibition; type: cell-based; conditions: FIG. 11
[1] = test system: GSCs relative to NSCs (G166 or CB660 cells); experiment: cell viability of GSC or NSC cells after SSA / SudC1 (AlamarBlue); type: cell-based, human; conditions: dilution series; FIGS. 3B and 3C
Text: (§1) Along with high MPM-2 staining, and little or no phosphorylated BubR1, this is consistent with a pre-anaphase arrest in which the mitotic checkpoint has not been triggered.

GSC-H2B-GFP cells = experiment: live cell imaging of drug-treated cells; type: cell-based, human; conditions: for timing of mitoses: GSCs, first hours after drug treatment; for mitotic arrest in live cell imaging: data not shown
GSCs and NSCs = experiment: cell cycle arrest after SSA or SudC1; type: cell-based, human; conditions: at doses within the efficacy window; data not shown
Text: as §1

H2B-GFP expressing GSCs = experiment: metaphase capture assay with MG132; type: cell-based, human; conditions: overnight exposure to drug, then MG132 for 2 hours
Procedure: The GSC-specific G2/M arrest was characterized by performing metaphase capture assays in H2B-GFP expressing GSCs treated with proteasome inhibitor MG132, which arrests mitotic cells at metaphase, blocking APCCdc20-dependent degradation of Cyclin B (Lampson and Kapoor 2005). After overnight exposure to SudC1 or SSA, cells were treated with MG132 for 2 hours. […] It was also observed that the viability loss in drug-treated GSC cultures results from the death of previously arrested mitotic cells and not interphase GSCs, identifying the cancer-specific mitotic arrest as a causative event in cancer cell death due to splicing inhibition.

U2 snRNP subunit SF3b = U2 snRNP subunit SF3b (Homo sapiens, UniProt O75533+Q7RTV0); conditions: Kaida et al. 2007; Corrionero et al. 2011; cited from earlier work
GSCs = experiment: cell cycle arrest phenotype (rounded cells) in GFP-expressing GSCs after shRNA; type: cell-based, human; conditions: FIG. 2
Text: Arrows point to rounded cells, which are those showing a cell arrest phenotype.
In addition, the GSC and NSC containing two of the shRNA sequences targeting PHF5α, KIF11 (positive control), and a random clone (negative control) were examined by immunofluorescence analysis using DAPI staining and a fluorescent microscope. Cells that appeared balled up are ones that suffered cell cycle arrest, while elongated cells were unaffected in their proliferation. […] In contrast, inhibition of PHF5α produced a striking phenotype of a G2/M mitotic arrest in GSCs, but not in NSCs (data not shown).
Ryzinski et al. (Cytogenet. […] Res. 121:232, 2008) identified PHF5α as a bridge protein capable of connecting members of the U2 snRNP, especially U2AF1 to RNA helicases, especially DDX1. To test whether, out of the possible known or unknown roles in a cell, the splicing functions of PHF5α is an important activity contributing to GSC survival and proliferation, shRNA knockdown similar to Example 2 was performed against each member of this bridging interaction—U2AF1 and DDX1.

[2] = test system: normal IMR90 fibroblast cells; experiment: drug response assay, alamarBlue viability; type: cell-based, human; conditions: 0.08-10.0 μM for 24 hours, viability at 72 hours; FIG. 9A
Text: (§2) Approximately 88% of clinical glioblastoma tumors harbor mutations that activate signaling through the Ras/PI3-kinase pathways (The Cancer Genome Atlas Research Network, Nature 455:1061, 2008). Since PHF5α inhibition is detrimental to a range of glioblastoma cell cultures, but not to the normal NSC from which most glioblastomas are thought to arise, transformation from a normal cell to a cancer cell was examined to determine whether PHF5α dependence was acquired during this process. Accordingly, Ras signaling was activated in normal IMR90 fibroblast cells by infecting with a retrovirus encoding the ElA and Ras oncogenes (EIA was included because Ras alone would be lethal in these cells). These partially transformed fibroblasts were probed for their response to shPHF5α inhibition and to a U2 snRNP splicing inhibitor (sudemycin C1). Viral shRNA knockdown was performed as described in the above examples. For drug response assays, cells were plated in 96-well plates and contacted with a range of sudemycin C1 concentrations (0.08, 0.16, 0.31, 0.63, 1.25, 2.50, 5.0 or 10.0 μM) for a period of 24 hours. Media was then removed and replaced with fresh media, then cell viability was measured 72 hours after drug exposure using the alamarBlue® assay (Invitrogen).

IMR90+E1A/Ras = experiment: drug response assay, alamarBlue viability; type: cell-based, human; conditions: 0.08-10.0 μM for 24 hours, viability at 72 hours; FIG. 9A
Text: as §2

RNA splicing = conditions: Lagisetti et al. 2008, 2009; Fan et al. 2011; cited from earlier work
[3] = test system: MEF cells with the addition of oncogenic Ras signaling; experiment: viability after sudemycin treatment; type: cell-based, mouse
Text: as §2, with “(Invitrogen). […]” for “(Invitrogen).”

[4] = test system: Non-transformed MEF cells; experiment: viability after sudemycin treatment; type: cell-based, mouse
[5] = test system: RNA splicing in GSCs and NSCs; experiment: splicing defects on gels after SudC1; type: cell-based, human; conditions: GSCs versus NSCs; FIG. 16
Text: This example also describes the effects of two candidate small molecule inhibitors of the U2 snRNP complex, Spliceostatin A (SSA) and Sudemycin C1 (SudC1). […] (Kaida et al. 2007; Corrionero et al. 2011). […] It was reasoned that if the most relevant GSC-specific function of PHF5A is its function in the splicing activity of the U2 snRNP, then these drugs should show a similar pattern of effects on RNA splicing in GSCs and NSCs. This was indeed the case. […] In addition, after PHF5A knockdown, multiple constitutive exons of the well characterized RTK/Ras signaling effector RAF1 and the cancer-associated deacetylase HDAC6 were skipped GSCs but not in normal NSCs.

[6] = test system: GSC primary cell cultures and normal NSC control cells; experiment: alamarBlue cell viability after shRNA knockdown; type: cell-based, human; conditions: shRNA virus, puromycin selection, one week, FIG. 1A
Text: (§3) To verify the robustness and reproducibility of PHF5α loss in GSC growth inhibition, the normal NSC control cells and a panel of five GSC primary cell cultures were infected with viruses encoding three different shRNA sequences targeting PHF5α (shPHF5α-133 (SEQ ID NO.:11), shPHF5α-402 (SEQ ID NO.:10), and shPHF5α-861 (SEQ ID NO.:9)), as well as a positive control (shKIF11-555 (SEQ ID NO.:19); blocking kinesin family member 11 (KIF11) prevents centrosome migration, which arrests cells in mitosis) and negative control (shCtrl). Cultures were selected with puromycin, plated at about 1000 cells per well in 96-well plates, and incubated for one week at 37° C./5% CO2 before assaying cell viability using the alamarBlue® assay (Invitrogen, Gand Island, N.Y.). Briefly, resazurin (a blue compound that is non-toxic, cell permeable compound and essentially non-fluorescent) is added to the cell cultures, which is reduced to resorufin upon entering metabolically active cells (in contrast, non-viable or damaged cells cannot do this effectively). Resorufin is a bright red fluorescent molecule that functions as a colorimetric indicator. In addition, all three shRNA viruses were internally validated to knock down PHF5α at both the RNA and protein levels (data not shown).

PHF5α = experiment: immunostained western blot of PHF5α protein after shRNA; type: cell-based, human; conditions: GSCs (G166, 0827, 0131) and NSCs, relative to shCtrl; FIG. 1B
Text: (B) is an immunostained western blot showing PHF5α protein levels are reduced in GSCs (G166, 0827, 0131) and NSCs when exposed to a short hairpin RNA (shRNA) that reduces PHF5α RNA levels (shPHF5α-133 (SEQ ID NO.:11), shPHF5α-402 (SEQ ID NO.:10), shPHF5α-861 (SEQ ID NO.:9)) relative to the levels of PHF5α in cells treated with a non-silencing control shRNA (shCtrl).
as §3

Sequence of PHF5α (Q7RTV0 whole entry): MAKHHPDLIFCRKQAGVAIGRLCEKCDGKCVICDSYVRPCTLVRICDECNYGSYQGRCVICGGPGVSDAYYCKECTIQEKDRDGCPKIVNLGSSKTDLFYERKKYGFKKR

With `Clc1ccccc1C(c1ccccc1)(c1ccccc1)n1ccnc1` [Clotrimazole] the “differential sensitivity of cells expressing Ras” value (“differential sensitivity” below) (Cells expressing Ras) was “not differentially sensitive”.
For `CO[C@]1(C)C[C@@]2(CO2)[C@H](O)[C@@H](/C=C/C(C)=C/C[C@@H]2O[C@H](C)[C@H](NC(=O)/C=C\[C@H](C)OC(C)=O)C[C@@H]2C)O1` [SSA, Spliceostatin A], the “viability loss in GSCs relative to NSCs” value [1] was “greater dose-dependent viability loss in GSCs relative to NSCs”, the timing of mitoses (GSC-H2B-GFP cells) was “did not affect the timing of mitoses for several hours after drug treatment” and the “mitotic arrest in live cell imaging” value (GSC-H2B-GFP cells) was “mitotic arrest pre-metaphase”. The cell cycle arrest (GSCs and NSCs) was “characteristic cell cycle arrest in GSCs but not NSCs”, the “metaphase arrest with MG132” value (H2B-GFP expressing GSCs) was “unable to properly arrest” and the “binding and inhibition of SF3b” value (U2 snRNP subunit SF3b) was “binds to and inhibits”. For the same compound, the “differential sensitivity” value (Cells expressing Ras) was “differentially sensitive”.
For `CCN1/C(=C/C(C)=O)Sc2ccc(OC)cc21` [TG003], the “differential sensitivity” value (Cells expressing Ras) was “not differentially sensitive”.
In the case of `[H]/N=C(\N/C(=N/[H])NCCCCCCNC(=N)NC(=N)Nc1ccc(Cl)cc1)Nc1ccc(Cl)cc1` [chlorhexidine], the “differential sensitivity” value (Cells expressing Ras) is reported as “not differentially sensitive”.
For `Fc1ccc(C(c2ccc(F)cc2)N2CCN(C/C=C/c3ccccc3)CC2)cc1` [flunarizine], the “differential sensitivity” value (Cells expressing Ras) was “not differentially sensitive”.
For “DDX1-301: shRNA targeting DDX1, ACACGGTGTTCCTTATGTTATA, SEQ ID NO. 18 (listed as DNA, chemistry not fully specified)”, the cell cycle arrest (GSCs) was “undergone cell cycle arrest”.
For Pladienolide B, the “differential sensitivity” value (Cells expressing Ras) was “differentially sensitive”.
With Sudemycin C1 [SudC1] the “viability loss in GSCs relative to NSCs” value [1] was “greater dose-dependent viability loss in GSCs relative to NSCs”, the timing of mitoses (GSC-H2B-GFP cells) was “did not affect the timing of mitoses for several hours after drug treatment” and the “mitotic arrest in live cell imaging” value (GSC-H2B-GFP cells) was “mitotic arrest pre-metaphase”. The cell cycle arrest (GSCs and NSCs) was “characteristic cell cycle arrest in GSCs but not NSCs”, the “sensitivity of cell viability” value [2] was “relatively resistant” and the “sensitivity of cell viability” value (IMR90+E1A/Ras) was “greatly sensitized”. The “modulation of RNA splicing” value (RNA splicing) was “modulates RNA splicing”, the “sensitivity of cell viability” value [3] was “greatly sensitized” and the “sensitivity of cell viability” value [4] was “relatively resistant”. For the same compound, the “metaphase arrest with MG132” value (H2B-GFP expressing GSCs) was “unable to properly arrest”, the splicing defects [5] was “dose-dependent GSC-specific splicing defects” and the “differential sensitivity” value (Cells expressing Ras) was “differentially sensitive”.
With “shPHF5α-133: shRNA targeting PHF5α, ACTCAACCAAGATCTTCTAAAA, SEQ ID NO. 11 (listed as DNA, chemistry not fully specified)” the “proliferation of GSCs compared to NSCs” value [6] was “greater reduction in proliferation of GSCs compared to normal neural stem cells” and the PHF5α protein levels (PHF5α) was “reduced”.
With “shPHF5α-402: shRNA targeting PHF5α, AGCATTTACTTGTTTAACACTT, SEQ ID NO. 10 (listed as DNA, chemistry not fully specified)” the “proliferation of GSCs compared to NSCs” value [6] was “greater reduction in proliferation of GSCs compared to normal neural stem cells” and the PHF5α protein levels (PHF5α) was “reduced”.
With “shPHF5α-861: shRNA targeting PHF5α, CGCCCACTAGTCTCATATTATT, SEQ ID NO. 9 (listed as DNA, chemistry not fully specified)” the cell cycle arrest (GSCs) was “undergone cell cycle arrest”, the “proliferation of GSCs compared to NSCs” value [6] was “greater reduction in proliferation of GSCs compared to normal neural stem cells” and the PHF5α protein levels (PHF5α) was “reduced”.
In the case of “shU2AF1-100: shRNA targeting U2AF1, CGGCTGTGATTGACTTGAATAA, SEQ ID NO. 1 (listed as DNA, chemistry not fully specified)”, the cell cycle arrest (GSCs) is reported as “undergone cell cycle arrest”.
